The assay addresses T1, pSTAT6 (Homo sapiens, UniProt P42226).
T1 construct: pY641-STAT6 MSD read-out
T1 sequence (P42226 1-847): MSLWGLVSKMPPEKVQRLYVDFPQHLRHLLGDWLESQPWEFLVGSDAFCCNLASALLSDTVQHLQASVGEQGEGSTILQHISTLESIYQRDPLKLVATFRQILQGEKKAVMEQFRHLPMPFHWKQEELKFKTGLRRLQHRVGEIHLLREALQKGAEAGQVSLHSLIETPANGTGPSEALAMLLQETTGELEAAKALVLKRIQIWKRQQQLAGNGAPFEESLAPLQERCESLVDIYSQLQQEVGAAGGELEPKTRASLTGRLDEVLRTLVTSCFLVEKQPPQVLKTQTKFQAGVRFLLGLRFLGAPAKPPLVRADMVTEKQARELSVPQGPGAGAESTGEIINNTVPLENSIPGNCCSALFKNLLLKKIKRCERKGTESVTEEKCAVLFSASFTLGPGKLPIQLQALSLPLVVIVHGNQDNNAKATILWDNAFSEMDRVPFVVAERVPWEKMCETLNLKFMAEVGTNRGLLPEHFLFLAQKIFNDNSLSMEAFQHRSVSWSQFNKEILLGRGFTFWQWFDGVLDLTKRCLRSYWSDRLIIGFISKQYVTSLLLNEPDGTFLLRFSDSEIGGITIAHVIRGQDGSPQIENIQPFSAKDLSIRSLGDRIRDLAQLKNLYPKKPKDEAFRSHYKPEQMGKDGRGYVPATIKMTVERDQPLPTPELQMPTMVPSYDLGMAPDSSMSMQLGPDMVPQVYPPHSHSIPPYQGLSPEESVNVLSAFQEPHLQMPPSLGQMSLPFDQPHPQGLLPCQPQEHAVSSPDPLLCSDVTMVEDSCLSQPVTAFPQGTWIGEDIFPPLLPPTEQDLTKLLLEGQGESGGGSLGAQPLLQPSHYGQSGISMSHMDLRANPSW
The experiment in a line: MSD-pSTAT-PBMC Assay, pSTAT6 (IL-4 stimulated PBMC). It is filed as cell-based. The source says: Cryopreserved Peripheral Blood Mononuclear Cells (PBMC) are from AllCells. Recombinant Human IL-4 and IL-6 are from Peprotech. Mouse monoclonal anti-STAT3 antibody, rabbit monoclonal anti-pY705-STAT3 antibody, rabbit monoclonal Anti-pY641-STAT6 antibody, and lysis buffer are from Cell Signaling Technology (CST). Mouse monoclonal anti-STAT6 antibody is from BioLegend. Assay plates, blocker, and anti-rabbit secondary antibody are from Meso Scale Discovery (MSD).
Cryopreserved PBMCs were thawed out and allowed to recover overnight in IMDM+10% heat-inactivated FBS prior to plating 50,000 (STAT3) or 25,000 (STAT6) cells per well in 96-well U-bottom tissue culture plates. Cells were treated with compound for 3 hrs. then stimulated with 10 ng/mL IL-6 (STAT3) or 1 ng/mL IL-4 (STAT6) for 10 min. Cells were then spun down and washed with ice-cold PBS prior to lysing the cell pellet with 1× lysis buffer (CST) with 1×HALT protease and phosphatase inhibitor cocktail (Thermo). Lysates were transferred to and incubated overnight at 4° C. with shaking in QuickPlex 96-well high bind assay plates (MSD) pre-coated overnight with 30 μL per well of 0.6 μg/mL mouse monoclonal anti-STAT3 antibody (STAT3) or 2 μg/mL mouse monoclonal anti-STAT6 antibody (STAT6) in 1×PBS, and pre-blocked for 1 hour with 3% Blocker-A (MSD). Captured protein in the assay plates were then washed and probed with 25 μL per well of 0.25 μg/ml rabbit monoclonal anti-pY705-STAT3 antibody (STAT3) or 0.18 μg/ml rabbit monoclonal Anti-pY641-STAT6 antibody (STAT6) in 1% Blocker-A for 1 hour at room temperature with shaking, then washed and probed with 25 ul per well of 1 ug/ml Sulfo-TAG Labeled Goat Anti-Rabbit Antibody (MSD) in 1% Blocker-A for 1 hour at room temperature with shaking. Assay plates were then washed and 150 μL of 1× Read Buffer-T (MSD) was added to each well prior to reading on an SQ120 MSD Plate Reader. Assay signal from each sample was subtracted by the signal from unstimulated control wells and normalized to DMSO control wells. IC50 values were calculated using Graph Pad Prism Dose-Response Nonlinear Regression with variable slope. For both pSTAT3 and pSTAT6 A=≤100 nM; B=>100-1000 nM; C=>1000-3000 nM; and D=>3 μM.

Where [1] appears, read: compound 3 hrs, then 1 ng/mL IL-4 for 10 min, pY641-STAT6, read-out: pSTAT6 IC50.

SMILES strings stand for the structures. Like-named read-outs stand apart in the source and are kept apart here.

With `Cc1ccc2onc(C(=O)N3CC[C@H]4CC[C@@H](C(=O)N(C)CCCCCCC#Cc5cccc6c5CN(C5CCC(=O)NC5=O)C6=O)N4C(=O)[C@@H](NC(=O)c4ccc5ccc(C(F)(F)P(=O)(OCOC(=O)OC(C)C)OCOC(=O)OC(C)C)cc5c4)C3)c2c1` (stereo partly drawn) [Compound 19, ((((7-(((5S,8S,10aR)-8-((8-(2-(2,6-dioxopiperidin-3-yl)-1-oxoisoindolin-4-yl)oct-7-yn-1-yl)(methyl)carbamoyl)-3-(5-methylbenzo[d]isoxazole-3-carbonyl)-6-oxodecahydropyrrolo[1,2-a][1,5]diazocin-5-yl)carbamoyl)naphthalen-2-yl)difluoromethyl)phosphoryl)bis(oxy))bis(methylene) diisopropyl bis(carbonate)], the IC50 under setting [1] was below 0.1 µM.

Consider `Cc1ccc2onc(C(=O)N3CC[C@H]4CC[C@@H](C(=O)N(C)CCCCCCC#Cc5cccc6c5CN(C5CCC(=O)NC5=O)C6=O)N4C(=O)[C@@H](NC(=O)c4ccc5ccc(C(F)(F)P(=O)(O)OCOC(=O)OC(C)C)cc5c4)C3)c2c1` (stereo partly drawn) [Compound 20, ((((7-(((5S,8S,10aR)-8-((8-(2-(2,6-dioxopiperidin-3-yl)-1-oxoisoindolin-4-yl)oct-7-yn-1-yl)(methyl)carbamoyl)-3-(5-methylbenzo[d]isoxazole-3-carbonyl)-6-oxodecahydropyrrolo[1,2-a][1,5]diazocin-5-yl)carbamoyl)naphthalen-2-yl)difluoromethyl)(hydroxy)phosphoryl)oxy)methyl isopropyl carbonate], for which the IC50 under setting [1] lay within 1 to 3 µM.

Consider `CCCOC(=O)[C@H](C)NP(=O)(Oc1ccccc1)C(F)c1ccc2ccc(C(=O)N[C@H]3CN(C(=O)c4noc5ccc(C)cc45)CC[C@H]4CC[C@@H](C(=O)N(C)CCCCCCC#Cc5cccc6c5CN(C5CCC(=O)NC5=O)C6=O)N4C3=O)cc2c1` (stereo partly drawn) [Compound 26, propyl (((7-(((5S,8S,10aR)-8-((8-(2-(2,6-dioxopiperidin-3-yl)-1-oxoisoindolin-4-yl)oct-7-yn-1-yl)(methyl)carbamoyl)-3-(5-methylbenzo[d]isoxazole-3-carbonyl)-6-oxodecahydropyrrolo[1,2-a][1,5]diazocin-5-yl)carbamoyl)naphthalen-2-yl)fluoromethyl)(phenoxy)phosphoryl)-L-alaninate], for which the IC50 (read-out: pSTAT6 IC50, compound 3 hrs, then 1 ng/mL IL-4 for 10 min, pY641-STAT6) is above 3 µM.

In the case of `Cc1ccc2onc(C(=O)N3CC[C@H]4CC[C@@H](C(=O)N(C)CCCCCCC#Cc5cccc6c5CN(C5CCC(=O)NC5=O)C6=O)N4C(=O)[C@@H](NC(=O)c4ccc5ccc(C(F)(F)P(=O)(OCCSC(=O)C(C)(C)C)OCCSC(=O)C(C)(C)C)cc5c4)C3)c2c1` (stereo partly drawn) [Compound 18, S,S′-(((((7-(((5S,8S,10aR)-8-((8-(2-(2,6-dioxopiperidin-3-yl)-1-oxoisoindolin-4-yl)oct-7-yn-1-yl)(methyl)carbamoyl)-3-(5-methylbenzo[d]isoxazole-3-carbonyl)-6-oxodecahydropyrrolo[1,2-a][1,5]diazocin-5-yl)carbamoyl)naphthalen-2-yl)difluoromethyl)phosphoryl)bis(oxy))bis(ethane-2,1-diyl)) bis(2,2-dimethylpropanethioate)], the IC50 under setting [1] is below 0.1 µM.

Consider `Cc1ccc2onc(C(=O)N3CC[C@H]4CC[C@@H](C(=O)N(C)CCCCCCC#Cc5cccc6c5CN(C5CCC(=O)NC5=O)C6=O)N4C(=O)[C@@H](NC(=O)c4ccc5ccc(C(F)(F)P(=O)(O)OCCSC(=O)C(C)(C)C)cc5c4)C3)c2c1` (stereo partly drawn) [Compound 17, S-(2-((((7-(((5S,8S,10aR)-8-((8-(2-(2,6-dioxopiperidin-3-yl)-1-oxoisoindolin-4-yl)oct-7-yn-1-yl)(methyl)carbamoyl)-3-(5-methylbenzo[d]isoxazole-3-carbonyl)-6-oxodecahydropyrrolo[1,2-a][1,5]diazocin-5-yl)carbamoyl)naphthalen-2-yl)difluoromethyl)(hydroxy)phosphoryl)oxy)ethyl) 2,2-dimethylpropanethioate], for which the IC50 under setting [1] was above 3 µM.

The values above are taken from patent US20260308186A1, “STAT DEGRADERS AND USES THEREOF” (Recludix Pharma, Inc., priority 2023, published 2026).
